# Measurements from patent US9457044B2, “Methods and compositions for wound healing” (CoDa Therapeutics, Inc., priority 2006, dated 2016).
# Columns and labels:
# TGF-β1 mRNA = assay: Real-Time PCR of TGF-β1 at wound sites; type: in vivo, mice
# Protocol: (§1) Male, 8 week old, ICR mice were used in the following experiments. All the mice were kept under specific pathogen-free conditions in an environmentally controlled clean room at University College London and all the experiments were carried out under UK Home Office regulations. Mice were anaesthetized by halothane inhalation. Four full-thickness excisional wounds of 6 mm diameter were made on the shaved back on either side of the dorsal midline with a 6 mm biopsy punch (Kai Industries). To each pair of wounds a single topical application of 50 μl of 1 μM Cx43 as ODN (SEQ. ID No. 2) (Sigma-Genosys) in 30% Pluronic F-127 gel (Sigma-Aldrich), chilled on ice, was made to one wound, and an identical application of 1 μM sense control sODNs was made to the other. […] R. and Becker, D. L. (2003). Targeting connexin 43 expression accelerates the rate of wound repair. Curr Biol 13, 1697-703). Each wound region was digitally photographed at the indicated time intervals, and the areas of the wounds were calculated. All wound areas were expressed as percentages of the initial wound areas. […]
# (§2) Gene specific primers and probe were obtained as TaqMan® Gene Expression Assays (Applied Biosystems) for Cx43, Ccl2, Co1α1, TNFα and TGFβ1. […] Each sample was analyzed in duplicate. […]
# blood vessels = assay: Angiogenesis at wound sites (von Willebrand factor, CD31, isolectinB staining); type: in vivo, mice
# Protocol: (§3) Male, 8 week old, ICR mice were used in the following experiments. All the mice were kept under specific pathogen-free conditions in an environmentally controlled clean room at University College London and all the experiments were carried out under UK Home Office regulations. Mice were anaesthetized by halothane inhalation. Four full-thickness excisional wounds of 6 mm diameter were made on the shaved back on either side of the dorsal midline with a 6 mm biopsy punch (Kai Industries). To each pair of wounds a single topical application of 50 μl of 1 μM Cx43 as ODN (SEQ. ID No. 2) (Sigma-Genosys) in 30% Pluronic F-127 gel (Sigma-Aldrich), chilled on ice, was made to one wound, and an identical application of 1 μM sense control sODNs was made to the other. […] R. and Becker, D. L. (2003). Targeting connexin 43 expression accelerates the rate of wound repair. Curr Biol 13, 1697-703). Each wound region was digitally photographed at the indicated time intervals, and the areas of the wounds were calculated. All wound areas were expressed as percentages of the initial wound areas. In some series of experiments, wounds and their surrounding area, including the scab and epithelial margins, were harvested with an 8 mm biopsy punch (Kai Industries) at the indicated time intervals after mice were killed with an overdose of chloroform. A minimum of eight mice were used for each time point examined.
# Wound tissues were fixed in 4% formaldehyde buffered with PBS, and embedded in paraffin. Sections ([…] thick) were subjected to hematoxylin and eosin staining or immunostaining. Measurement of granulation tissue area in H&E was performed using Improvision Openlab™ 4.0.2 software (Improvision). For immunohistochemistry, deparaffinized sections were treated with endogenous peroxidase blocking reagent (Dako Cytomation A/S) and proteinase K (Dako Cytomation A/S) for 20 minutes and 6 minutes at room temperature, respectively. They were then incubated with rabbit antimyeloperoxidase (MPO) polyclonal antibody (NeoMarkers) diluted 1:200, rat anti-mouse F4/80 monoclonal antibody (mAb) (Abcom Limited) diluted 1:400 or rat antimouse CD31 (platelet endothelial cell adhesion molecule 1, PECAM-1) mAb (PharMingen) or rabbit anti-mouse TGF-β1 polyclonal antibody (Santa Cruz Biotechnology, Inc) both diluted 1:200 overnight at 4° C. after blocking with 15% skimmed milk for 1 hour at room temperature. In addition, some sections were reacted with phalloidin-tetramethylrhodamine B isothiocyanate (Sigma-Aldrich) diluted 1:500 for 1 hour at room temperature. The antibodies were appropriately diluted in Antibody Diluent with Background Reducing Components (Dako Cytomation A/S). The sections reacted with anti-MPO antibody and anti TGF-β1 antibody were stained with EnVision+™ (Dako Cytomation A/S) to enhance the signal, according to the manufacturer's instructions. The sections that had been reacted with anti-F4/80 and anti-CD31 antibodies were incubated with biotinylated rabbit anti-rat immunoglobulin (Dako Cytomation A/S) diluted 1:200 for 1 hour at 37° C. The signal was then enhanced using the Catalyzed Signal Amplification System® (Dako Cytomation A/S) according to the manufacturer's instructions. Thereafter, counterstaining was performed with methyl green (Dako Cytomation A/S) followed by MPO, TGF-β1, F4/80, and CD31 staining or 4′,6-diamidino-2-phenylindole (DAPI) followed by phalloidin staining. […]
# TGF-β1 = assay: Immunostaining for TGF-β1 at wound sites; type: in vivo, mice; conditions: 2 days
# Protocol: as §3, with “examined. […]” for “examined.”
# IGFBP-2 = assay: Growth factor/cytokine antibody array of chimera: IGFBP-2; type: cell-based, human; conditions: after two weeks in culture
# Protocol: (§4) Cell denuded pig stroma chimeras were cultured for two weeks and then assessed using a growth factor/cytokine antibody array (measures protein levels of 120 different growth factors/cytokines.
# (§5) After two weeks in culture the chimeras were cut in half: one half for histological analysis, and the other for growth factor and cytokine array analysis. For growth factor and cytokine analysis the central stromal region (with fully recovered human cell epithelium) and partially repopulated stroma (human keratocytes) was removed and homogenised separately from the human limbal rim which contains stem cell populations. The homogenates were run on a growth factor/cytokine array (FIG. 15) and analysis of growth factor levels performed using densitometry analysis of the array membranes.
# TNF-α mRNA = assay: Real-Time PCR of TNF-α at wound sites; type: in vivo, mice; conditions: day 7; P<0.05 versus control sODN
# Protocol: as §1, §2
# MPO-positive neutrophils = assay: Neutrophil recruitment into wound site (anti-MPO staining); type: in vivo, mice; conditions: day 1 and 2, versus control
# Protocol: as §1
# (§6) A treatment-blinded observer counted MPO-positive neutrophils and F4/80-positive macrophages in the wound bed (defined as the area surrounded by unwounded skin, fascia, regenerated epidermis, and eschar) in 3 random high-power fields of 0.332 mm^2. […]
# IGF-7 = assay: Growth factor/cytokine antibody array of chimera: IGF-7; type: cell-based, human; conditions: after two weeks in culture
# Protocol: as §4, §5
# [1] = test system: F4/80-positive macrophages; assay: Macrophage recruitment into wound site (F4/80 immunohistochemistry); type: in vivo, mice
# Protocol: as §1, §6
# hydroxyproline = assay: Hydroxyproline analysis of collagen content of wound area; set-up: species or system mice; conditions: mouse, in vivo
# Protocol: as §1, with “Targeting connexin 43 expression accelerates the rate of wound repair. Curr Biol 13, 1697-703).” left out
# The collagen content of the wound area was assessed by determining the amount of hydroxyproline (HP), a major component of collagen. […] Concentrations of protein were measured using a BCA™ Protein Assay Kit (PIERCE Biotechnology Inc.), and the amounts of HP were determined with Sircol™ Soluble Collagen Assay Kit (Biocolor Ltd.). The data were expressed as amounts of HP/total protein (ng/μg) for each sample.
sequence,measurement,setting,value
"GTAATTGCGGCAGGAGGAATTGTTTCTGTC (antisense GTAATTGCGGCAGGAGGAATTGTTTCTGTC; in Pluronic F-127 gel, further chemistry not given here) [Cx43 asODN]",expression of TGF-β1 mRNA versus control sODN-treated wounds,"TGF-β1 mRNA; day 2 after the injury, P<0.05",significantly increased
same,"expression of TGF-β1 mRNA, control versus treated wounds",TGF-β1 mRNA; days 1 and 7,no difference
same,blood vessel staining in granulation tissue,"blood vessels; 5 days, none in control wounds",staining was seen in the edges of the granulation tissue of all
same,"quantified blood vessel staining, treated versus controls","blood vessels; 7 days P=0.0019, 10 days P=0.015",significantly more staining in controls
same,"size of blood vessels and extent of staining, treated versus control",blood vessels; 14 days,very similar
same,wounds with fine blood vessels throughout the entire granulation tissue,blood vessels; day 7,five out of six
same,enhancement of the rate of wound maturation,"blood vessels; mouse, in vivo",2 to 3 days
same,TGF-β1 positive elongated fibroblast-like cells at the dermal margins of the wound,TGF-β1,an additional TGF-β1 positive cell type could be seen in large numbers
same,TGF-β1 staining in the epidermis versus control wound epidermis,TGF-β1,much more strongly
same,level of IGFBP-2 in limbal rim and stroma compared with untreated controls,IGFBP-2,higher levels
same,expression level of TNF-α mRNA,TNF-α mRNA,significantly reduced
same,neutrophil numbers at wound site,MPO-positive neutrophils,significantly reduced
same,level of IGF-7 in chimeric stroma compared with untreated controls,IGF-7,very high levels
same,reduction of number of macrophages versus control sODN-treated wounds,[1]; day 2,33%
same,reduction of number of macrophages versus control sODN-treated wounds,[1]; day 7,32%
same,hydroxyproline in treated wounds,hydroxyproline,increased
